In BindingDB's records for doi:10.1021/jm00155a029 (1986):

Test: Compound was tested for the inhibitory effect against Gamma-amino-N-butyrate transaminase from bacteria

Molecule NC/C=C(\CF)C(=O)O [(2Z)-4-ammonio-2-(fluoromethyl)but-2-enoate] has a Ki of 9 µM.
